In patent publication US12290596B2, “Compositions and methods for the treatment of opioid overdose” (priority 2021, dated 2025):

Experiment: Two-period crossover pharmacokinetics of nalmefene 3 mg IN vs 1.0 mg IM (Example 12)
Conditions: human, plasma, plasma; for Vd/F: Vz/F; for concentration at 0.5 h: 0.500 h
[1] = intramuscular, 1 mg, Mean plasma concentration, Treatment B 1.0 mg IM
[2] = intramuscular, 1 mg, Median plasma concentration, Treatment B 1.0 mg IM
[3] = other: intranasal, 3 mg, Mean plasma concentration, Treatment A 3.0 mg IN
[4] = other: intranasal, 3 mg, Median plasma concentration, Treatment A 3.0 mg IN

C=C1CC[C@@]2(O)[C@H]3Cc4ccc(O)c5c4[C@@]2(CCN3CC2CC2)[C@H]1O5 [Nalmefene, 17-cyclopropylmethyl-4,5α-epoxy-6-methylenemorphinan-3,14-diol]
Tmax (im, 1 mg, Tmax, Treatment B: IM 1.0 mg nalmefene hydrochloride, Geo. Mean, n=68): 0.603 h | Vd/F (im, 1 mg, Treatment B: IM 1.0 mg nalmefene hydrochloride, Geo. Mean, n=68): 894 L | Vd/F (im, 1 mg, Treatment B: IM 1.0 mg nalmefene hydrochloride, Mean, n=68): 916 L | concentration at 0 h [1]: 0.00352 ng/mL | concentration at 0.5 h [1]: 1.11 ng/mL | concentration at 2 h [1]: 0.972 ng/mL | concentration at 3 h [1]: 0.896 ng/mL | concentration at 4 h [1]: 0.824 ng/mL | concentration at 6 h [1]: 0.688 ng/mL | concentration at 8 h [1]: 0.67 ng/mL | concentration at 36 h [1]: 0.0968 ng/mL | concentration at 12 h [1]: 0.538 ng/mL | concentration at 18 h [1]: 0.36 ng/mL | concentration at 24 h [1]: 0.223 ng/mL | concentration at 48 h [1]: 0.0491 ng/mL | concentration at 0 h [2]: 0 ng/mL | concentration at 0.5 h [2]: 0.945 ng/mL | concentration at 1 h [2]: 0.829 ng/mL | concentration at 2 h [2]: 0.858 ng/mL | concentration at 3 h [2]: 0.818 ng/mL | concentration at 4 h [2]: 0.77 ng/mL | concentration at 6 h [2]: 0.673 ng/mL | concentration at 8 h [2]: 0.629 ng/mL | concentration at 36 h [2]: 0.0915 ng/mL | concentration at 12 h [2]: 0.516 ng/mL | concentration at 18 h [2]: 0.341 ng/mL | concentration at 24 h [2]: 0.203 ng/mL | concentration at 48 h [2]: 0.0436 ng/mL | half-life (other: intranasal (nasal spray), 3 mg, Plasma half-life, 3 mg IN): ~11 h | AUC(0-t) (other: intranasal, 3 mg, AUC0-5 min, GeoMean, Treatment A 3.0 mg IN (Test)): 0.06 ng·h/mL | AUC(0-t) (other: intranasal, 3 mg, AUC0-5 min, Treatment A: 3.0 mg nalmefene hydrochloride IN, Geo. Mean, n 66): 0.0599 ng·h/mL | AUC(0-t) (other: intranasal, 3 mg, AUC0-5 min, Treatment A: 3.0 mg nalmefene hydrochloride IN, Median, n 66): 0.0546 ng·h/mL | AUC(0-t) (other: intranasal, 3 mg, AUC0-10 min, GeoMean, Treatment A 3.0 mg IN (Test)): 0.514 ng·h/mL | AUC(0-t) (other: intranasal, 3 mg, AUC0-10 min, Treatment A: 3.0 mg nalmefene hydrochloride IN, Geo. Mean, n 66): 0.523 ng·h/mL | AUC(0-t) (other: intranasal, 3 mg, AUC0-10 min, Treatment A: 3.0 mg nalmefene hydrochloride IN, Mean, n 66): 0.787 ng·h/mL | AUC(0-t) (other: intranasal, 3 mg, AUC0-10 min, Treatment A: 3.0 mg nalmefene hydrochloride IN, Median, n 66): 0.537 ng·h/mL | AUC(0-t) (other: intranasal, 3 mg, AUC0-15 min, GeoMean, Treatment A 3.0 mg IN (Test)): 1.19 ng·h/mL | AUC(0-t) (other: intranasal, 3 mg, AUC0-15 min, Treatment A: 3.0 mg nalmefene hydrochloride IN, Geo. Mean, n 66): 1.2 ng·h/mL | AUC(0-t) (other: intranasal, 3 mg, AUC0-15 min, Treatment A: 3.0 mg nalmefene hydrochloride IN, Mean, n 66): 1.6 ng·h/mL | AUC(0-t) (other: intranasal, 3 mg, AUC0-15 min, Treatment A: 3.0 mg nalmefene hydrochloride IN, Median, n 66): 1.19 ng·h/mL | AUC(0-t) (other: intranasal, 3 mg, AUC0-20 min, GeoMean, Treatment A 3.0 mg IN (Test)): 1.87 ng·h/mL | AUC(0-t) (other: intranasal, 3 mg, AUC0-20 min, Treatment A: 3.0 mg nalmefene hydrochloride IN, Geo. Mean, n 66): 1.89 ng·h/mL | AUC(0-t) (other: intranasal, 3 mg, AUC0-20 min, Treatment A: 3.0 mg nalmefene hydrochloride IN, Mean, n 66): 2.34 ng·h/mL | AUC(0-t) (other: intranasal, 3 mg, AUC0-20 min, Treatment A: 3.0 mg nalmefene hydrochloride IN, Median, n 66): 1.85 ng·h/mL | AUC(0-t) (other: intranasal, 3 mg, AUC0-30 min, GeoMean, Treatment A 3.0 mg IN (Test)): 3.04 ng·h/mL | AUC(0-t) (other: intranasal, 3 mg, AUC0-30 min, Treatment A: 3.0 mg nalmefene hydrochloride IN, Geo. Mean, n 66): 3.07 ng·h/mL | AUC(0-t) (other: intranasal, 3 mg, AUC0-30 min, Treatment A: 3.0 mg nalmefene hydrochloride IN, Mean, n 66): 3.55 ng·h/mL | AUC(0-t) (other: intranasal, 3 mg, AUC0-30 min, Treatment A: 3.0 mg nalmefene hydrochloride IN, Median, n 66): 3.04 ng·h/mL | AUC(0-t) (other: intranasal, 3 mg, AUC0-[…], Treatment A: 3.0 mg nalmefene hydrochloride IN, Mean, n 66): 0.0193 ng·h/mL | AUC(0-t) (other: intranasal, 3 mg, AUCLast, GeoMean, Treatment A 3.0 mg IN (Test)): 38.9 ng·h/mL | AUC(0-inf) (other: intranasal, 3 mg, AUCinf, GeoMean, Treatment A 3.0 mg IN (Test)): 40.3 ng·h/mL | Cmax (other: intranasal, 3 mg, Cmax, GeoMean, Treatment A 3.0 mg IN (Test)): 10.3 ng/mL | concentration at 0 h [3]: 0.00146 ng/mL | concentration at 0.5 h [3]: 6.25 ng/mL | concentration at 1 h [3]: 4.64 ng/mL | concentration at 2 h [3]: 4.03 ng/mL | concentration at 3 h [3]: 3.17 ng/mL | concentration at 4 h [3]: 2.52 ng/mL | concentration at 6 h [3]: 1.69 ng/mL | concentration at 8 h [3]: 1.23 ng/mL | concentration at 36 h [3]: 0.171 ng/mL | concentration at 12 h [3]: 0.87 ng/mL | concentration at 18 h [3]: 0.529 ng/mL | concentration at 24 h [3]: 0.366 ng/mL | concentration at 48 h [3]: 0.0875 ng/mL | concentration at 0 h [4]: 0 ng/mL | concentration at 0.5 h [4]: 5.86 ng/mL | concentration at 1 h [4]: 4.68 ng/mL | concentration at 2 h [4]: 3.99 ng/mL | concentration at 3 h [4]: 3.13 ng/mL | concentration at 4 h [4]: 2.49 ng/mL | concentration at 6 h [4]: 1.65 ng/mL | concentration at 8 h [4]: 1.18 ng/mL | concentration at 36 h [4]: 0.165 ng/mL | concentration at 12 h [4]: 0.832 ng/mL | concentration at 18 h [4]: 0.518 ng/mL | concentration at 24 h [4]: 0.341 ng/mL | concentration at 48 h [4]: 0.0843 ng/mL
